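The compound was tested at five concentrations on cells cultured in 96-well plates, with a 48-hour exposure period. GI50 marks 50% less growth.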 Active and inactive are the calls of the source. Cut-off read from the data, not from the text of the source: active = GI50 up to about 1.1 µM and inactive = higher.
Key:
Test in all cases: NCI-60 cell line screen, 48 h
[1] = test system: U-251
[2] = test system: EKVX
[3] = test system: A549
[4] = test system: IGROV-1
[5] = test system: SNB-19
[6] = test system: SN12C
[7] = test system: HCT-15
[8] = test system: TK-10
[9] = test system: NCI-H23
[10] = test system: OVCAR-5
[11] = test system: MCF7
[12] = test system: SK-MEL-2
[13] = test system: MDA-N
[14] = test system: MDA-MB-435
[15] = test system: SW-620
[16] = test system: ACHN
[17] = test system: T47D
[18] = test system: COLO 205
[19] = test system: 786-0
[20] = test system: NCI-H522
[21] = test system: PC-3
[22] = test system: A498
[23] = test system: Malme-3M
[24] = test system: CAKI-1
[25] = test system: OVCAR-4
[26] = test system: NCI/ADR-RES
[27] = test system: NCI-H226
[28] = test system: HCC 2998
[29] = test system: HOP-92
[30] = test system: SNB-75
[31] = test system: M14
[32] = test system: UACC-257
[33] = test system: DU-145
[34] = test system: OVCAR-8
[35] = test system: SK-MEL-5
[36] = test system: HCT-116
[37] = test system: Hs-578T
[38] = test system: SF-539
[39] = test system: SK-MEL-28
[40] = test system: UACC-62
[41] = test system: HOP-62
[42] = test system: SF-295
[43] = test system: HT-29
[44] = test system: SK-OV-3
[45] = test system: KM12
[46] = test system: LOX IMVI
[47] = test system: MDA-MB-231
[48] = test system: UO-31
[49] = test system: BT-549
[50] = test system: NCI-H460
[51] = test system: OVCAR-3
[52] = test system: RXF 393
[53] = test system: SF-268

With CC1(C)[C@@H]2CC[C@]1(C)[C@H](OC(=O)CSC#N)C2 the GI50 [1] was > 100 µM (inactive), the GI50 [2] was > 100 µM (inactive) and the GI50 [3] was > 100 µM (inactive). The GI50 [4] was > 100 µM (inactive), the GI50 [5] was > 100 µM (inactive) and the GI50 [6] was > 100 µM (inactive). The GI50 [7] was > 100 µM, the GI50 [8] was > 100 µM (inactive) and the GI50 [9] was > 100 µM (inactive). The GI50 [10] was > 100 µM (inactive), the GI50 [11] was 65.9 µM (inactive) and the GI50 [12] was > 100 µM (inactive). The GI50 [13] was > 100 µM (inactive), the GI50 [14] was 46.2 µM (inactive) and the GI50 [15] was 17.9 µM (inactive). The GI50 [16] was > 100 µM (inactive), the GI50 [17] was > 100 µM (inactive) and the GI50 [18] was > 100 µM (inactive). For the same molecule, the GI50 [19] was 18.3 µM (inactive), the GI50 [20] was 43.9 µM (inactive) and the GI50 [21] was > 100 µM (inactive). For the same molecule, the GI50 [22] was > 100 µM (inactive), the GI50 [23] was > 100 µM (inactive) and the GI50 [24] was > 100 µM (inactive). The GI50 [25] was > 100 µM (inactive), the GI50 [26] was > 100 µM (inactive) and the GI50 [27] was > 100 µM (inactive). For the same molecule, the GI50 [28] was > 100 µM (inactive), the GI50 [29] was > 100 µM (inactive) and the GI50 [30] was > 100 µM (inactive). The GI50 [31] was 47.1 µM (inactive), the GI50 [32] was > 100 µM (inactive) and the GI50 [33] was > 100 µM (inactive). For the same molecule, the GI50 [34] was 34.2 µM (inactive), the GI50 [35] was > 100 µM (inactive) and the GI50 [36] was 40.4 µM (inactive). For the same molecule, the GI50 [37] was > 100 µM (inactive), the GI50 [38] was 28.7 µM (inactive) and the GI50 [39] was > 100 µM (inactive). For the same molecule, the GI50 [40] was > 100 µM (inactive), the GI50 [41] was > 100 µM (inactive) and the GI50 [42] was > 100 µM (inactive). For the same molecule, the GI50 [43] was > 100 µM (inactive), the GI50 [44] was > 100 µM (inactive) and the GI50 [45] was > 100 µM (inactive). The GI50 [46] was 35.2 µM (inactive), the GI50 [47] was > 100 µM (inactive) and the GI50 [48] was 39.1 µM (inactive). The GI50 [49] was > 100 µM (inactive), the GI50 [50] was > 100 µM (inactive) and the GI50 [51] was 30.8 µM (inactive). The GI50 [52] was > 100 µM (inactive) and the GI50 [53] was > 100 µM (inactive).

— ChEMBL document CHEMBL1201862, “PubChem BioAssay data set” (2004)
